Entries after “also recorded” stand apart in the source; their conditions may differ.
Columns and labels:
Assay type in all cases: in vivo, mouse
Bsep = assay: Hepatic expression of bile salts transporter Bsep (Western blot)
Description: (§1) Expression of Specific Bile Salts (Ntcp, Bsep), Phospholipid (MDR2) and Organic Anions or Glutathione (MRP2); And Determination of Glutathione Synthesis (Gluthamylcystein-Synthetase (GGCS)).
Western Blot analysis. We evaluated protein expression levels of the bile salts transporters Ntcp (sinusoidal pole) and Bsep (cannicular pole) by Western blotting in total liver membranes or liver plasma membranes from mice treated with the different diets. Total membranes were obtained from liver fragments homogenized in Tris-HCl pH 7.5, MgCl2 and sucrose. The homogenates were centrifuged at 1,000 g to separate nuclei, and the supernatants were then centrifuged at 100,000 g. The pellet, containing the total membranes, was resuspended in the buffer described above and proteins were quantified by the Bradford method. Aliquots containing 50 μg protein were separated by SDS-PAGE and transfer to nitrocellulose. The membranes were incubated in buffer TBS-T (Tris-HCl pH 7.5, NaCl and Tween-20), milk 5% w/v plus the antibodies to evaluate the different proteins (Bsep, Ntcp). The secondary antibodies were IgG anti rabbit or anti mouse coupled to peroxidase. The protein signals were detected by the ECL method.

MDR2 = assay: Hepatic expression of phospholipid transporter MDR2 (Northern blot)
Protocol: as §1
(§2) Total RNA extraction. 80 mg hepatic tissue frozen at −70° C. was homogenized in 800 μl solution D, following the method described by Chomczynski and Sacchi, 1987. The RNA concentration was calculated by measuring the absorbance at 260 nm and its purity by the ratio OD260/OD280. The samples are stored at −20° C. RNA electrophoresis. 10 μg of total RNA are dried under gaseous N2 or vacuum for 10 minutes. 10 μl loading buffer were added, and the samples heated to 65° C., loaded into a denaturing 1% agarose/formaldehyde gel and run at 100 volts for 4 hours. The RNA integrity was determined by the clear visualization of the 28 S and 18 S ribosomal RNAs (FIG. 8).
(§3) Northern Blot and hybridization with radioactive probes. The gel with the RNA samples is washed with DEPC H2O for 10 minutes to eliminate formaldehyde and then incubated for 20 minutes with 50 mM NaOH for partial RNA hydrolysis. After a 10 minute wash with DEPC H2O to eliminate NaOH, the samples are transferred from the gel to Nylon membranes (Hybond-N, Amersham Pharmacia) over night by a capillary system. […]
(§4) Probe labeling by “de novo synthesis”. […] The percentage of incorporated radioactivity into the probe was always over 60%. […]

MRP2 = assay: Hepatic expression of MRP2 (Northern blot); conditions: 14 days
Protocol: as §1, §2, §3, §4

Q: Which “hepatic expression of Bsep, lithogenic diet plus Ezetimibe vs lithogenic diet” value (Bsep; 14 days) does the source give for `O=C1[C@H](CC[C@H](O)c2ccc(F)cc2)[C@@H](c2ccc(O)cc2)N1c1ccc(F)cc1` [Ezetimibe, (−)-1-(4-fluorophenyl)-(3R)-[3-(4-fluorophenyl)-(.S)-hydroxypropyl]-(4S)-(4-hydroxyphenyl)-2-azetidinone] here?
A: The value was “no significant differences”.

Q: What about the “Bsep hepatic protein expression level with Ezetimibe” value (Bsep; FIG. 6 A, on both diets) of the same compound?
A: Its value is “does not show significant changes”.

Q: And the “phospholipid transporter MDR2 at the mRNA level” value (MDR2; lithogenic diet plus Ezetimibe vs lithogenic diet, 14 days)?
A: The value was “small but statistically significant decrease; also recorded: slight but statistically significant decrease”.

Q: What about the mdr2 protein levels (MDR2; lithogenic diet plus Ezetimibe, data not shown) of the same compound?
A: Its mdr2 protein levels is “no concomitant decrease”.

Q: What about the “hepatic expression of MRP2, lithogenic diet plus Ezetimibe vs lithogenic diet” value (MRP2) of the same compound?
A: Its value is “no significant differences”.

From patent publication US8361999B2, “Methods of treating cholesterol gallstone disease with ezetimibe” (Pontificia Universidad Catolica de Chile, priority 2005, dated 2013)
